Test results from publication PMC4552634, “A New Set of Chemical Starting Points with Plasmodium falciparum Transmission-Blocking Potential for Antimalarial Drug Discovery” (PLoS ONE, 2015).
Like-named read-outs stand apart in the source and are kept apart here.

Assays:
[1] = test system: HepG2 cells; assay: Cytotoxicity in HepG2 cells (intracellular ATP, ATPlite, 48 h); format: cell-based, human; conditions: HepG2 cells; IC50 per ratio column head; unit inferred
[2] = test system: P. falciparum asexual stages; conditions: asexual stages; TCAMS data; read-out: IC50 asexual; cited from earlier work
[3] = test system: P. falciparum stage V gametocytes; assay: Gametocytocidal ATP bioluminescence assay (single point 5 μM and 1 μM, dose-response); format: cell-based, Plasmodium falciparum; conditions: for Ratio IC50 HepG2/IC50 P. falciparum: IC50 HepG2 divided by IC50 P. falciparum gametocytes
Protocol: Purified stage IV-V gametocytes were obtained as previously described [10]. Single point ATP bioluminescence assay and dose–response of positive hits was determined in accordance with the previously published protocol [10].

[4] = test system: P. falciparum stage V gametocytes; assay: microbe, parasite or virus in culture; set-up: BacTiter-Glo ATP luminescence viability of purified stage V gametocytes in 384-well plates, per cent inhibition versus DMSO; conditions: Plasmodium falciparum, 48 h, read-out: % Inhibition
[5] = P. falciparum gametocytes, average, read-out: IC50 Pf Gametocytes average, IC50 (µM) average
[6] = sexual stages (gametocytes), dose-response, read-out: IC50 sexual

| SMILES | IC50 [1] [nM] | IC50 [2] [nM] | Ratio IC50 HepG2/IC50 P. falciparum [3] | IC50 [3, 5] [µM] | inhibition at 5 µM [4] [%] | also measured |
| --- | --- | --- | --- | --- | --- | --- |
| CN(C)CCN(Cc1ccccc1-c1ccc(CNCCc2ccccc2)cc1)C(=O)c1ccccc1 [TCMDC-140532] | 7540 | 1700 | 10 | 0.78 | – | – |
| CC(C)CNCc1cccc(-c2cccc(CN(CCCN3CCN(C)CC3)C(=O)/C=C/c3ccccc3)c2)c1 [TCMDC-140541] | 7470 | 926 | 13 | 0.56 | – | IC50 [3, 6]: 0.557 µM |
| CN1CCN(CCCN(Cc2cccc(-c3cccc(CNC4CCCC4)c3)c2)C(=O)/C=C/c2ccccc2)CC1 [TCMDC-140543] | 7170 | 777 | 9 | 0.8 | – | IC50 [3, 6]: 0.805 µM |
| CN1CCN(CCCN(Cc2cccc(-c3ccc(CNC4CCCC4)cc3)c2)C(=O)/C=C/c2ccccc2)CC1 [TCMDC-140544] | 6390 | 746 | 9 | 0.74 | – | IC50 [3, 6]: 0.735 µM |
| CC(C)CNCc1cccc(-c2cccc(CN(CCCN3CCN(C)CC3)C(=O)CCC3CCCC3)c2)c1 [TCMDC-140554] | 4550 | 624 | 7.58 | 0.6 | – | – |
| O=C(c1cccs1)N(Cc1cccc(-c2ccc(CNC3CCCC3)cc2)c1)C1CCN(Cc2ccccc2)CC1 [TCMDC-140567] | 7100 | 1130 | 8 | 0.85 | – | IC50 [3, 6]: 0.845 µM |
| CN1CCN(CCCN(Cc2cccc(-c3ccc(CNCCc4ccccc4)cc3)c2)C(=O)c2cccs2)CC1 [TCMDC-140568] | 5600 | 716 | 6 | 0.89 | – | – |
| CC(C)CNCc1cccc(-c2ccccc2CN(C(=O)NCCc2ccccc2)C2CCN(Cc3ccccc3)CC2)c1 [TCMDC-140608] | 6600 | 1170 | <1 | > 10 | – | – |
| O=C(NCCc1ccccc1)N(Cc1cccc(-c2ccc(CNC3CCCC3)cc2)c1)C1CCN(Cc2ccccc2)CC1 [TCMDC-140618] | 7420 | 404 | 5.66 | 1.31 | – | – |
| CN(C)CCN(Cc1ccccc1-c1ccc(CNCCc2ccccc2)cc1)C(=O)NC1CCCCC1 [TCMDC-140626] | 6400 | 906 | 18 | 0.35 | – | – |
| CC(C)CNCc1ccc(-c2cccc(CN(C(=O)NC3CCCCC3)C3CCN(Cc4ccccc4)CC3)c2)cc1 [TCMDC-140628] | 1810 | 805 | 1.09 | 1.66 | – | – |
| CN(C)CCCOc1ccc(CN2CCC(c3c[nH]c4ccc(NCC5CCCCC5)cc34)CC2)cc1 [TCMDC-140737] | 6800 | 678 | 14 | 0.5 | – | – |
| CN1CCC(N(Cc2ccc(-c3ccc(Cl)cc3)cc2)C(=O)Cn2c(CCc3cccc(F)c3F)cc(=O)c3ccccc32)CC1 [TCMDC-141357] | 6700 | 865 | 2 | 3.43 | – | IC50 [3, 6]: 3.43 µM |
| ON=C1CCc2cc(-c3cc(-c4ccc(OC5CCNCC5)cc4)oc3-c3ccncc3)ccc21 [TCMDC-141381] | 7500 | 157 | 28 | 0.27 | – | – |
| O=C(C1CC1c1ccccc1)N(Cc1ccc(-c2ccc(CNCCc3ccccc3)cc2)cc1)C1CCNCC1 (centres unmarked) [TCMDC-141443] | 6700 | 1110 | 17 | 0.39 | – | IC50 [3, 6]: 0.385 µM |
| O=C(CC1CCCC1)N(Cc1ccc(-c2ccc(CNC3Cc4ccccc4C3)cc2)cc1)CC1CCCCN1 (centres unmarked) [TCMDC-141446] | 6470 | 1060 | 6.45 | 1 | – | IC50 [3, 6]: 1 µM |
| CCN(CC)CCCNc1ncc2c(-c3ccc(NC(=O)Nc4cc(C(F)(F)F)ccc4F)cc3)nn(C)c2n1 [TCMDC-141583] | 9500 | 220 | 2.73 | 3.48 | – | – |
| CCN(Cc1ccc(-c2ccc(C(F)(F)F)cc2)cc1)C(=O)Cn1c(SCc2cccc(F)c2F)cc(=O)c2cc(CN3CCCCC3)ccc21 [TCMDC-141592] | 4200 | 801 | 1.8 | 2.34 | – | IC50 [3, 6]: 2.33 µM |
| O=C(O)CCSSc1cccc[n+]1[O-] [TCMDC-141973] | 7800 | 808 | 29 | 0.27 | – | – |
| Cc1ccc2nc(C)cc(N/N=C/c3ccc([N+](=O)[O-])cc3)c2c1 [TCMDC-142070] | 190 | 793 | 0.0202 | 9.41 | – | – |
| Fc1ccccc1C=NNc1ccnc2ccccc12 [TCMDC-142101] | – | – | – | – | -64.6 | – |
| O=[N+]([O-])c1ccccc1C=NNc1ccnc2ccccc12 [TCMDC-142102] | – | – | – | – | -47.5 | – |

| SMILES | IC50 [1] [nM] | IC50 [2] [nM] | Ratio IC50 HepG2/IC50 P. falciparum [3] | IC50 [3, 5] [µM] | inhibition at 5 µM [4] [%] | also measured |
| --- | --- | --- | --- | --- | --- | --- |
| FC(F)(F)c1ccc2nccc(NN=Cc3ccc(Cl)cc3)c2c1 [TCMDC-142103] | – | – | – | – | 1.69 | – |
| Fc1ccccc1C=NNc1ccnc2ccc(C(F)(F)F)cc12 [TCMDC-142104] | – | – | – | – | -68.2 | – |
| COc1ccc2c(NN=Cc3ccc(Cl)cc3)ccnc2c1 [TCMDC-142105] | – | – | – | – | -15.3 | – |
| COc1cccc2c(NN=Cc3ccc(Cl)cc3)ccnc12 [TCMDC-142106] | – | – | – | – | -26.4 | – |
| COc1cccc2c(NN=Cc3cccc(F)c3)ccnc12 [TCMDC-142107] | – | – | – | – | 74.3 | – |
| COc1ccc2c(N/N=C/c3ccc([N+](=O)[O-])cc3)ccnc2c1 [TCMDC-142108] | – | – | – | – | 91.3 | – |
| COc1cccc2c(N/N=C/c3ccc([N+](=O)[O-])cc3)ccnc12 [TCMDC-142109] | – | – | – | – | 64 | – |
| COc1ccc2nccc(NN=Cc3ccccc3)c2c1 [TCMDC-142110] | – | – | – | – | 31.2 | – |
| COc1ccc2c(NN=Cc3ccccc3)ccnc2c1 [TCMDC-142111] | – | – | – | – | 89.4 | – |
| Fc1ccc2c(NN=CC=Cc3ccccc3)ccnc2c1 [TCMDC-142112] | – | – | – | – | 93.5 | – |
| Cc1ccc2c(NN=Cc3ccc(Cl)cc3)cc(C)nc2c1 [TCMDC-142113] | – | – | – | – | 40.7 | – |
| Cc1cc(NN=Cc2ccccc2Cl)c2cccc(C)c2n1 [TCMDC-142114] | – | – | – | – | 48.6 | – |
| Cc1cc(NN=Cc2ccc(Cl)cc2)c2cccc(C)c2n1 [TCMDC-142115] | – | – | – | – | -40.8 | – |
| COc1cccc2c(NN=Cc3ccccc3Cl)cc(C)nc12 [TCMDC-142116] | – | – | – | – | 23.3 | – |
| COc1cccc2c(NN=Cc3cccc(Cl)c3)cc(C)nc12 [TCMDC-142117] | – | – | – | – | 27.1 | – |
| COc1ccc2c(NN=Cc3ccccc3F)cc(C)nc2c1 [TCMDC-142118] | – | – | – | – | -19.6 | – |
| COc1ccc2c(NN=Cc3ccccc3)cc(C)nc2c1 [TCMDC-142119] | – | – | – | – | 7.88 | – |
| COc1ccc2c(NN=Cc3cccc(C)n3)cc(-c3ccccc3)nc2c1 [TCMDC-142120] | – | – | – | – | -50.4 | – |
| CN=C(Nc1c(Cl)cccc1Cl)N(C)C [TCMDC-142121] | – | – | – | – | 5.95 | – |
| Fc1ccc2nccc(NN=Cc3ccccc3Cl)c2c1 [TCMDC-142122] | – | – | – | – | -2.19 | – |
| Fc1ccc2nccc(NN=CC=Cc3ccccc3)c2c1 [TCMDC-142123] | – | – | – | – | -73.4 | – |
| COc1ccc2nccc(NN=Cc3ccc(Cl)cc3)c2c1 [TCMDC-142124] | – | – | – | – | 58.2 | – |

| SMILES | IC50 [1] [nM] | IC50 [2] [nM] | Ratio IC50 HepG2/IC50 P. falciparum [3] | IC50 [3, 5] [µM] | inhibition at 5 µM [4] [%] | also measured |
| --- | --- | --- | --- | --- | --- | --- |
| COc1ccc2nccc(NN=Cc3cccc(Cl)c3)c2c1 [TCMDC-142125] | – | – | – | – | 11.8 | – |
| COc1ccc2nccc(NN=Cc3ccccc3Cl)c2c1 [TCMDC-142126] | – | – | – | – | 20.5 | – |
| COc1ccc2c(NN=Cc3ccccc3Cl)ccnc2c1 [TCMDC-142127] | – | – | – | – | -22.2 | – |
| COc1ccc2c(NN=Cc3cccc(Cl)c3)ccnc2c1 [TCMDC-142128] | – | – | – | – | 98.7 | – |
| COc1cccc2c(NN=Cc3cccc(Cl)c3)ccnc12 [TCMDC-142129] | – | – | – | – | 91.8 | – |
| COc1ccc2nccc(NN=Cc3ccccc3F)c2c1 [TCMDC-142130] | – | – | – | – | 6.1 | – |
| COc1ccc2nccc(NN=Cc3cccc(F)c3)c2c1 [TCMDC-142131] | – | – | – | – | 82.2 | – |
| COc1ccc2nccc(NN=Cc3ccc(F)cc3)c2c1 [TCMDC-142132] | – | – | – | – | 32.1 | – |
| COc1ccc2c(NN=Cc3ccccc3F)ccnc2c1 [TCMDC-142133] | – | – | – | – | 84.6 | – |
| COc1ccc2c(NN=Cc3cccc(F)c3)ccnc2c1 [TCMDC-142134] | – | – | – | – | 99 | – |
| COc1ccc2c(NN=Cc3ccc(F)cc3)ccnc2c1 [TCMDC-142135] | – | – | – | – | 5.77 | – |
| COc1ccc2nccc(NN=Cc3ccccc3[N+](=O)[O-])c2c1 [TCMDC-142136] | – | – | – | – | 27.9 | – |
| COc1ccc2nccc(NN=Cc3cccc([N+](=O)[O-])c3)c2c1 [TCMDC-142137] | – | – | – | – | 53.9 | – |
| COc1ccc2c(N/N=C/c3cccc([N+](=O)[O-])c3)ccnc2c1 [TCMDC-142138] | – | – | – | – | 79.5 | – |
| COc1ccc2nccc(NN=Cc3ccc([N+](=O)[O-])cc3)c2c1 [TCMDC-142139] | – | – | – | – | -3.02 | – |
| COc1ccc2c(N/N=C/c3ccccc3[N+](=O)[O-])ccnc2c1 [TCMDC-142140] | – | – | – | – | 101 | – |
| COc1cccc2c(N/N=C/c3ccccc3[N+](=O)[O-])ccnc12 [TCMDC-142141] | – | – | – | – | 90.8 | – |
| COc1cccc2c(N/N=C/c3cccc([N+](=O)[O-])c3)ccnc12 [TCMDC-142142] | – | – | – | – | -28.6 | – |
| COc1ccc2nccc(NN=CC=Cc3ccccc3)c2c1 [TCMDC-142143] | – | – | – | – | 39 | – |
| COc1ccc2c(NN=CC=Cc3ccccc3)ccnc2c1 [TCMDC-142144] | – | – | – | – | -5.92 | – |
| COc1ccc2nccc(NN=Cc3ccc(N(C)C)cc3)c2c1 [TCMDC-142145] | – | – | – | – | -119 | – |
| COc1ccc2c(NN=Cc3ccc(N(C)C)cc3)ccnc2c1 [TCMDC-142146] | – | – | – | – | 97.5 | – |
